Measured values reported in publication PMC3003687, “α-Galactosylceramide Analogs with Weak Agonist Activity for Human iNKT Cells Define New Candidate Anti-Inflammatory Agents” (PLoS ONE, 2010).
pEC50: −log10 of the molar value.

How the values were obtained:
human iNKT cell clones = experiment: Cytokine ELISA of human iNKT cell clones stimulated with glycolipid-pulsed CD1d-transfected HeLa cells; type: cell-based; conditions: for pEC50: Homo sapiens, iNKT, HDD3 clone, IL-4 levels did not reach a plateau; for iNKT cell clone cytokine response / agonist activity: dose range, IFNγ, IL-4, IL-13, clones HDD3, HDD11, HDE3, HDA7
Protocol: Capture ELISA assays were used for measurement of cytokine responses of human iNKT cells to αGalCer analogs. One day prior to the experiment, CD1d transfected HeLa cells were plated at 25×10^3 cells/well in 100 µL of medium in flat-bottom 96 well plates. Glycolipids were then added in 100 µL of medium to give final concentrations ranging from 0.05 to 10^4 nM. The APCs were incubated for approximately 18 hours with the glycolipids and then irradiated (10,000 Rad) and washed twice with PBS prior to addition of 25×10^3 iNKT cells well in 300 µL. Supernatants were harvested after 24 hours of co-culture and stored frozen at -20°C. After thawing, aliquots of the supernatants were assayed for specific cytokines by ELISA using capture and biotin-labeled detection antibody pairs specific for GM-CSF, IL-2, IL-4, IL-12p70 and IL-13 (all obtained from BD Biosciences), IFNγ (Thermo-Scientific) or IL-18 (MBL). Specific signals were developed using HRP- conjugated streptavidin (BD Biosciences) and Turbo TMB substrate (Thermo-Scientific). Supernatants were tested pure and/or diluted to give values within a quantitative linear standard curve generated with recombinant cytokines. Curves of dose-dependent cytokine responses and graphs were plotted using the Graphpad Prism Software. EC50 values were calculated using the function log (agonist) response with variable slope, and statistical analyses were carried out using the same software. To calculate concentration-dependent cytokine ratios, IL-4/IFNγ and IL-13/IFNγ ratios were calculated using cytokine values from which background levels (i.e. levels in cultures receiving DMSO vehicle alone) were subtracted. Ratios were calculated by dividing IL-4 or IL-13 concentrations in pg/mL by IFNγ concentration in ng/mL.

hCD1d = molecular target: T1, hCD1d (Homo sapiens, UniProt P15813); experiment: Loading of hCD1d tetramers with variable glycolipid to CD1d ratios; type: binding; conditions: for lipid excess at which tetramers were efficiently loaded: 20 nM tetramers, 25 to 1000 fold molar excess of glycolipid to hCD1d, HDD3 clone
T1 construct: we generated soluble and fluorescent tetrameric hCD1d molecules loaded with each of the glycolipid analogs; made in house
Description: (§1) To characterize in more detail the iNKT cell TCR recognition of αGalCer analogs presented by human CD1d, we generated soluble and fluorescent tetrameric hCD1d molecules loaded with each of the glycolipid analogs. […] This was similar to the previously reported failure of mouse CD1d tetramer loaded with lysosulfatide to bind detectably to murine non-invariant and sulfatide specific NKT cells, despite a clear reactivity to this lipid upon presentation by APCs; [40]. […] To quantitate their binding avidities to iNKT cell TCRs, we used titration of analog-loaded hCD1d tetramers to determine equilibrium dissociation constants (KD), which are inversely proportional to avidity (Figure 3A and 3B).
(§2) Figure 3 Characterization of human iNKT cell TCR interactions with analog-loaded tetramers. (A) iNKT cell clones were stained with titrated amounts of hCD1d tetramers loaded with the indicated glycolipids (abbreviations as in legend to Figure 1), and the measured MFI values are plotted for selected glycolipids. (B) The equilibrium dissociation constants (KD, inversely proportional to TCR avidity) were determined as the concentrations of tetramers required to yield 50% of maximal binding. Data shown were obtained using the CD4^+ iNKT cell clone HDD3, and similar results (not shown) were obtained with a second CD4^+ clone (HDD11) and a CD4^−8^− double negative iNKT cell clone (HDE3). (C) Analysis of iNKT cell clones labeled with 20 nM of hCD1d tetramers which were loaded with variable excesses of analog to constant hCD1d (25 to 1000 fold molar excess of glycolipid to hCD1d protein). The measured MFI values were normalized as the percent of the maximum staining intensity obtained with each analog loaded tetramer. Data presented were generated with HDD3 (CD4+) iNKT cell clone, and similar results (not shown) were obtained with HDE3 (DN) clone.

[1] = tested on: human iNKT cells and NK cells; experiment: In vitro transactivation assay (CFSE-labeled iNKT cells co-cultured with PBMC); type: cell-based; conditions: 24 h; for IL-12 levels in supernatants / IL-13 levels in supernatants / IL-18 levels in supernatants / global IFNγ production in supernatants / ability to activate iNKT cells and stimulate NK cell transactivation (IFNγ+ cells): 100 nM; for IL-12 levels in supernatants / IL-13 levels in supernatants / IL-18 levels in supernatants / global IFNγ production in supernatants: ELISA; for ability to activate iNKT cells and stimulate NK cell transactivation (IFNγ+ cells): iNKT/PBMC 1/10, compared with KRN7000
Protocol: iNKT cells were stained for 5 minutes with 1–20 µM of CFSE (Molecular probes) and 5% FCS in PBS and washed twice. As a positive control, a fraction of CFSE-labeled iNKT cells were preactivated for 30 minutes with 1 µg/mL of PMA and 250 ng/mL of Ionomycin (Sigma-Aldrich) in culture medium and extensively washed. The experiment was initiated by adding CFSE-labeled unstimulated or PMA/Ionomycin-preactivated iNKT cells to freshly prepared PBMC pulsed with vehicle or αGalCer analogs at the indicated concentrations and at an iNKT/PBMC ratio of 1/10 or 1/40. Supernatants and cells were harvested from parallel conditions after the indicated time of co-culture. For intracellular cytokine staining, brefeldin A (Golgiplug, BD Biosciences) was added 4 h before harvesting the cells, which were fixed with 1% paraformaldehyde and permeabilized with 0.1% saponin (Sigma-Aldrich) prior to mAb staining. Experiments with blocking antibodies were performed with 10 µg/mL of preservative-free mAbs, including isotype matched control, anti-IL-2, anti-IL-12, anti-IFNγ and anti-CD40L (all from BD Biosciences) or anti-IL-18 (MBL). For detection of CD40L expression by iNKT cells, co-cultures of iNKT and PBMC were prepared as above, except that monensin (Golgistop, BD Biosciences) and fluorescent CD40L specific mAb (1/10 or 1/20 final dilution) were added at the beginning of the experiment, as previously described.
Figure 6 A novel in vitro “transactivation assay” to assess the ability of human iNKT cells to activate other leukocytes. (A) Format for analysis of transactivation of bystander leukocytes. Flow cytometric analysis was carried out for culture containing iNKT cells co-cultured for 24 hours with fresh human PBMC at a 1/10 ratio. For the intracellular detection of IFNγ, Brefeldin A was added for the last 4 hours. Representative electronic gating is shown for the discrimination of CFSE-labeled iNKT cells, B cells, T cells, and NK cells to measure IFNγ expression (or CD69 expression, not shown). Filled black histograms show staining with vehicle control and are overlaid with open gray histograms for stimulation with 100 nM of KRN7000. (B) Dose-dependent IFNγ and CD40L expression by iNKT cells (top and middle graph, respectively) and IFNγ production by transactivated NK cells (bottom graph), after 24 h of co-culture of CFSE-labeled iNKT cells and PBMCs at a 1/10 ratios and the indicated concentration of either KRN7000 (black filled circles) or the adamantanoyl (AD) analog (open circles). Data are presented for a CD4^+ clone (HDD3), and similar results (not shown) were obtained with a DN clone (HDE3). (C) Effect of specific blockade of various cytokines and CD40L on the activation of iNKT cells and transactivated NK cells. CFSE-labeled iNKT cells and PBMCs were co-cultured at a 1/40 ratio for the indicated time, in the presence of KRN7000 at 25 nM and 10 µg/mL of isotype matched control or specific blocking antibodies as indicated. Average percentages of IFNγ^+ iNKT cells and NK cells, assessed by intracellular staining at 24, 48 and 66 hours, are indicated in the left and right plots, respectively.
Figure 7 Comparison of αGalCer analogs for their ability to induce NK cell transactivation. (A) iNKT cell clones were co-cultured for 24 hours with fresh human PBMC at a 1/10 ratio with 100 nM of the indicated analogs, and Brefeldin A was added for the last 4 hours. The percentages of IFNγ^+ iNKT cells (open bars) and IFNγ^+ NK cells (filled bars) are indicated. Cytokine levels were assessed by ELISA in supernatants from identical conditions in absence of Brefeldin A treatment: (B) IFNγ levels (open bars) and IL-13 levels (filled bars); the detection limit was 82.3 ng/mL for both cytokines. (C) IL-12 levels (open bars) and IL-18 levels (filled bars); the detection limit was 27.4 ng/mL. Results obtained with a CD4^+ clone (HDD3) are presented, and similar data (not shown) were obtained with a DN clone (HDE3).

Human iNKT TCRs = Human iNKT TCRs (Homo sapiens, UniProt A0A075B6N4+A0A0B4J240+P15813); experiment: Equilibrium binding of analog-loaded hCD1d tetramers to iNKT cell clones
Description: For flow cytometric analysis, 6B11 (Vα24Jα18 specific) and mAbs specific for human CD3, CD4, CD8α, CD19, CD40L (CD154), CD56, CD69, GM-CSF & IFNγ were obtained from BD Biosciences. IL-4 and IL-13 specific mAbs were from Biolegend. Vα24 (C15) and Vβ11 (C21) specific mAb were from Immunotech. For antibody blocking in culture assays, non-specific isotype matched control, IL-2, IFNγ, IL-12p70 and CD40L specific mAbs without preservatives were obtained from BD Biosciences and IL-18 specific mAb from Medical & Biological Laboratories (MBL, Nagoya, Japan). Phycoerythrin and allophycocyanin labeled human CD1d tetramers were prepared in our laboratory as previously described. Curves of tetramer equilibrium binding constants and graphs were plotted using the Graphpad Prism Software (Version 5). KD values were calculated using the function non-linear fit (hyperbola, one binding site).
as §1, §2

T1 sequence (P15813 20-301 limits assumed): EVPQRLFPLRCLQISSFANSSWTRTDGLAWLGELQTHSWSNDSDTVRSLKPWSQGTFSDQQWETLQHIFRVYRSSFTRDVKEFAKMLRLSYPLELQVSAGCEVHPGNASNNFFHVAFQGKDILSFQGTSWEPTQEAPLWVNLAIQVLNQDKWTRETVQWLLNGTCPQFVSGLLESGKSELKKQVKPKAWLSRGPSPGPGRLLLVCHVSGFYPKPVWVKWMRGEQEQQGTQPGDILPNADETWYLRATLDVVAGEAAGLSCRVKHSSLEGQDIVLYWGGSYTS
T1 sequence (P61769 21-119 partner): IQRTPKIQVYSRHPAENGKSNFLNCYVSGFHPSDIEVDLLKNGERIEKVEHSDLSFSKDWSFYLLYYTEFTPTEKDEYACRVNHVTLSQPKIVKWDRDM
Human iNKT TCRs, sequence (P15813 20-301): as the sequence (P15813 20-301 limits assumed) above
Human iNKT TCRs, sequence (P01848 whole entry, further chain): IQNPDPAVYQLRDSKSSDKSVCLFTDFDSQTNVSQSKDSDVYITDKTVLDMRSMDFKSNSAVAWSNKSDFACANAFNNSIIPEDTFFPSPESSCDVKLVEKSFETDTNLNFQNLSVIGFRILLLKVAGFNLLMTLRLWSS
Human iNKT TCRs, sequence (A0A0B4J240 22-114): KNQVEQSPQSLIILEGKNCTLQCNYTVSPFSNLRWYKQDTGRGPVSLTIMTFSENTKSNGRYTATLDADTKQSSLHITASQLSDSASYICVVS
Human iNKT TCRs, sequence (P61769 21-119, further chain): as the sequence (P61769 21-119 partner) above
Human iNKT TCRs, sequence (A0A075B6N4 22-114): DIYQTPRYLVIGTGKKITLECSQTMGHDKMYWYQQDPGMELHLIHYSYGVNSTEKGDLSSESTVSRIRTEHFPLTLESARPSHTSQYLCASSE

| Compound | pEC50 (human iNKT cell clones) | lipid excess at which tetramers were efficiently loaded (hCD1d) | IL-12 levels in supernatants [1] | IL-13 levels in supernatants [1] | IL-18 levels in supernatants [1] | global IFNγ production in supernatants [1] | ability to activate iNKT cells and stimulate NK cell transactivation (IFNγ+ cells) [1] | CD40L and IFNγ expression by iNKT cells ([1]; iNKT/PBMC 1/10, dose range) | binding to hCD1d (hCD1d) | iNKT cell clone cytokine response / agonist activity (human iNKT cell clones) | staining of iNKT cell clones by analog-loaded hCD1d tetramers (Human iNKT TCRs) |
| --- | --- | --- | --- | --- | --- | --- | --- | --- | --- | --- | --- |
| CCCCCCCCCCCCCC[C@@H](O)[C@@H](O)[C@H](CO[C@H]1O[C@H](CO)[C@H](O)[C@H](O)[C@H]1O)NC(=O)C12CC3CC(CC(C3)C1)C2 [AD] | < 5.00 | 25–50 fold | undetectable | lower, but still detectable, IL-13 levels | remained low | lower global IFNγ production | lower degree of iNKT cell activation with a limited transactivation of NK cells | induced with high doses |  |  |  |
| CCCCCCCCCCCCCC[C@@H](O)[C@@H](O)[C@H](CO[C@H]1O[C@H](CO)[C@H](O)[C@H](O)[C@H]1O)NC(=O)c1cccc(Br)c1 [BB] | < 5.00 | 25–50 fold | undetectable | lower, but still detectable, IL-13 levels | remained low | lower global IFNγ production | lower degree of iNKT cell activation with a limited transactivation of NK cells |  |  |  |  |
| CCCCCCCCCCCCCC[C@@H](O)[C@@H](O)[C@H](CO[C@H]1O[C@H](CO)[C@H](O)[C@H](O)[C@H]1O)NC(=O)c1ccc(F)c(F)c1 [DFB] | < 5.00 | much higher lipid excess was necessary | undetectable | lower, but still detectable, IL-13 levels | remained low | lower global IFNγ production | lower degree of iNKT cell activation with a limited transactivation of NK cells |  | weak binding to hCD1d |  |  |
| CCCCCCCCCCCCCC[C@@H](O)[C@@H](O)[C@@H](N)CO[C@H]1O[C@H](CO)[C@H](O)[C@H](O)[C@H]1O [Lyso] |  |  | undetectable | lower, but still detectable, IL-13 levels | remained low | lower global IFNγ production | lower degree of iNKT cell activation with a limited transactivation of NK cells |  |  | substantially lower iNKT cell response | failed to detectably stain any of our iNKT cell clones |
| CCCCCCCCCCCCCC[C@@H](O)[C@@H](O)[C@H](CO[C@H]1O[C@H](CO)[C@H](O)[C@H](O)[C@H]1O)NC(=O)c1ccc(C)cc1 [Tol] |  | 25–50 fold | detectable IL-12 generation | high IL-13 levels | enhanced IL-18 levels compared to vehicle control | high global production of IFNγ |  |  |  | substantially lower iNKT cell response |  |
